The record followed here is patent US20010039287A1, “AROMATIC SULFONE HYDROXAMIC ACID METALLOPROTEASE INHIBITOR” (priority 1997, published 2001).

Where a name gives a salt, the structure may show the parent alone. Read-outs that look alike come from different tables or passages of the source.

For series [1], the target named is recombinant human MMP-13 (Homo sapiens, UniProt P45452). Nature of the series: biochemical.
The target in series [2] is T1, recombinant human MMP-1 (Homo sapiens, UniProt P03956).
T1 construct: made in house; host or cells: transfected HT-1080 cells (provided by Dr. Harold Welgus, Washington University)
T1 sequence (P03956 100-469): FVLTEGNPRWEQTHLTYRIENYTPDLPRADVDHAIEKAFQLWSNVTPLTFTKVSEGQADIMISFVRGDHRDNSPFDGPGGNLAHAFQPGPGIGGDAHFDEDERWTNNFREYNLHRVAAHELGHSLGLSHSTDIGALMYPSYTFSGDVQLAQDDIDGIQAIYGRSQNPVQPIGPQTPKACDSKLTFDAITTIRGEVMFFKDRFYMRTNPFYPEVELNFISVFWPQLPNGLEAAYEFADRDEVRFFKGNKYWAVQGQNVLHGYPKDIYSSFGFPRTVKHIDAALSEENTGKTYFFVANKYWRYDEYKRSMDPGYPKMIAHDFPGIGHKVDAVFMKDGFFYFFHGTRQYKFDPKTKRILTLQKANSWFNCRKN
The series can be described thus: biochemical.

The target of series [3] is T2, recombinant human MMP-2 (Homo sapiens, UniProt P08253).
T2 sequence (P08253 110-660): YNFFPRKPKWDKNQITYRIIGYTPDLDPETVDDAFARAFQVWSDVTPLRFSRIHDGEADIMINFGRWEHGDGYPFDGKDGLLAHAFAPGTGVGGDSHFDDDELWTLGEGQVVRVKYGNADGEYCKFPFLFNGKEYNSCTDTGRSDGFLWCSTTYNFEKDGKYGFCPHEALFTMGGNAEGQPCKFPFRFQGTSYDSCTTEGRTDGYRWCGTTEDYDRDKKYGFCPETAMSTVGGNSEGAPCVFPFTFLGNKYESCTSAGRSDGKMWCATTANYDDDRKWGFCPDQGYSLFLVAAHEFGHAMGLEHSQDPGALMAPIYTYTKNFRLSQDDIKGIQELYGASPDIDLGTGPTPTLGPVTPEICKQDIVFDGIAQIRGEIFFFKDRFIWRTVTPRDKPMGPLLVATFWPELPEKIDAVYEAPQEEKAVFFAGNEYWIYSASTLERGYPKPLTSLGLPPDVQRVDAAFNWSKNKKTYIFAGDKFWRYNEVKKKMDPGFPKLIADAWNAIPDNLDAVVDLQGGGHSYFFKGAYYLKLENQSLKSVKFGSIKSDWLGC
Nature of the series: biochemical.

On the set-up of series [4]: AUC (0-∞): unit not given beside the values. The following applies: for t½ Hour: Rat Intravenous 20 mpk.
Series [5] has as its target recombinant human MMP-9 (Homo sapiens, UniProt P14780). Nature of the series: biochemical.
[6] abbreviates: Inhibition Table B, read-out: MMP-13 IC50.
Setting [7] is: Inhibition Table B, read-out: MMP-2 IC50.
Setting [8] is: Inhibition Table B, read-out: MMP-9 IC50.
Where [9] appears, read: Inhibition Table B, read-out: MMP-1 IC50.

Sequence of recombinant human MMP-9 (P14780 107-707 limits assumed): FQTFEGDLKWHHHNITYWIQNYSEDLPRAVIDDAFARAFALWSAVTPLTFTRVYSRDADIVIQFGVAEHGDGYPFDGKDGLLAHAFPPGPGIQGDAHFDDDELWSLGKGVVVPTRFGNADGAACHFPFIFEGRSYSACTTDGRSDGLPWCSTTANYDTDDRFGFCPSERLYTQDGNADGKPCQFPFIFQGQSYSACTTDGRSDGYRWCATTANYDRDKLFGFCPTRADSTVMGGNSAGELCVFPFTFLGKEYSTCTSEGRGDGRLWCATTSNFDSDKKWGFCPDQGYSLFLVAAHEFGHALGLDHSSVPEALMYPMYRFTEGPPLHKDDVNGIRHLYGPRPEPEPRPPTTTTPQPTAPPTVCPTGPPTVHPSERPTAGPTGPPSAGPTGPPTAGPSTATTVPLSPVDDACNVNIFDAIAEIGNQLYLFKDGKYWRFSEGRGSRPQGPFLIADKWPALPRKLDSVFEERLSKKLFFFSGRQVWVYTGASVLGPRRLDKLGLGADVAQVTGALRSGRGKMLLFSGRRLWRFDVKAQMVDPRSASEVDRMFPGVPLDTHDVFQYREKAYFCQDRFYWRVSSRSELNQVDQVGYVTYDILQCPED

For `CC(=O)N1CCC(C(=O)NO)(S(=O)(=O)c2ccc(Oc3ccccc3)cc2)CC1` [Example 12], the results for the IC50 in series [1], in series [2] and in series [3] (MMP-2 IC50 (nM)) were < 0.1 nM, 464 nM and < 0.1 nM, respectively. Besides, the “AUC (0-∞)” value in series [4] (rat, in vivo) came out at 22.11. Besides, the t1/2 in series [4] (rat, in vivo) was 0.86 h. Further, the “Blood Level @ 3 min” value in series [4] (rat, in vivo, iv, 20 mg/kg) was 73.54 µg/mL.
For the compound `O=C(NO)C1(S(=O)(=O)c2ccc(Oc3ccccc3)cc2)CCN(C2CC2)CC1` [Example 17], the IC50 (usually the concentration needed to halve the response being measured) amounted to […] in series [1]; 400 nM in series [2] (Inhibition Table A, read-out: MMP-1 IC50); 0.2 nM in series [3] (MMP-2 IC50 (nM)); […] in series [5]. Also, the “AUC (0-∞)” value in series [4] (rat, in vivo) was found to be 37.10. Besides, the “Blood Level @ 3 min” value in series [4] (rat, in vivo) was found to be 63.44 µg/mL; in series [4] (rat, in vivo, iv, 20 mg/kg), 63.44 µg/mL. Moreover, the t1/2 in series [4] (rat, in vivo) came out at 0.74 h. In addition, the BA in series [4] (rat, in vivo, 20 mg/kg) was 35.9%. Besides, in series [4] (rat, in vivo, 20 mg/kg), the BA % came to 35.9%.
Turning to `Cl.O=C(NO)C1(S(=O)(=O)c2ccc(Sc3ccccc3)cc2)CCN(C2CC2)CC1` [Example 32, 1-cyclopropyl-N-hydroxy-4-[[4-(phenylthio)phenyl]sulfonyl]-4-piperidine Carboxamide, Monohydrochloride], the IC50 in series [1] (setting [6]) was 0.2 nM; in series [2], > 10000 nM; in series [3] (setting [7]), 0.1 nM; in series [5] (setting [8]), 2.5 nM. For the same compound, the “t½ Hour” value in series [4] amounted to 1.03 h.
Regarding `C#CCN1CCC(C(=O)NO)(S(=O)(=O)c2ccc(Oc3ccc(C)c(C)c3)cc2)CC1.Cl` [Example 43, 4-[[4-(3,4-Dimethylphenoxyl)phenyl]sulfonyl]-N-hydroxy-1-(2-propynyl)-4-piperidinecarboxamide, Monhydrochloride], the IC50 worked out at 0.8 nM in series [1] (setting [6]), 7000 nM in series [2] (setting [9]) and 0.4 nM in series [3] (setting [7]). In series [4], the “t½ Hour” value was determined as 0.82 h.
Consider `Cc1cc(Oc2ccc(S(=O)(=O)C3(C(=O)NO)CCNCC3)cc2)ccc1Cl.Cl` [Example 79], for which the “t½ Hour” value in series [4] is 1.82 h.
Consider `C#CCN1CCC(C(=O)NO)(S(=O)(=O)c2ccc(Oc3ccc(Cl)c(C)c3)cc2)CC1.Cl` [Example 81, 4-[[4-(4-chloro-3-methylphenoxy)phenyl]sulfonyl]-N-hydroxy-1-(2-propynyl)-4-piperidinecarboxamide, Monohydrochloride], for which the IC50 in series [1] (setting [6]) was 0.3 nM; in series [2] (setting [9]), 3300 nM; in series [3] (setting [7]), 0.1 nM. The “t½ Hour” value in series [4] came to 0.76 h.
`O=C(NO)C1(S(=O)(=O)c2ccc(Oc3ccccc3)cc2)CCOCC1` [Example 94, Tetrahydro-N-hydroxy-4-[(4-phenoxyphenyl)sulfonyl]-2H-pyran-4-carboxamide]: the IC50 in series [1] (setting [6]) and in series [3] (setting [7]) was < 0.1 nM throughout. Also, the “t½ Hour” value in series [4] is 1.71 h.
Turning to `Cl.O=C(NO)C1(S(=O)(=O)c2ccc(Oc3ccc(-n4ccnc4)cc3)cc2)CCOCC1` [Example 99, tetrahydro-N-hydroxy-4-[[4-[4-(1H-imidazol-1-yl)phenoxy]phenyl]-sulfonyl]-2H-pyran-4-carboxamide, Monohydrochloride], the IC50 was 1 nM in series [1] (setting [6]), > 10000 nM in series [2] (setting [9]) and 0.4 nM in series [3] (setting [7]). The “t½ Hour” value in series [4] stood at 0.68 h.
Take `O=C(NO)C1(S(=O)(=O)c2ccc(Oc3ccc(Cl)cc3)cc2)CCOCC1` [Example 100, 4-[[4-(4-chlorophenoxy)-phenyl]sulfonyl]-tetrahydro-N-hydroxy-2H-pyran-4-carboxamide]: the “t½ Hour” value in series [4] stood at 1.50 h.
For the compound `O=C(NO)C1(S(=O)(=O)c2ccc(Oc3ccccc3)cc2)CC[S+]([O-])CC1` (stereo not drawn) [Example 111], the results for the IC50 in series [1] (setting [6]), in series [2] (setting [9]) and in series [3] (setting [7]) were 1.3 nM, 3700 nM and 0.5 nM, respectively. In series [4], the “t½ Hour” value was 0.65 h.
Turning to `CC(=O)N1CCN(c2ccc(Oc3ccc(S(=O)(=O)C4(C(=O)NO)CCOCC4)cc3)cc2)CC1` [Example 123, 4-[[4-[4-(4-acetyl-1-piperazinyl)phenoxy]phenyl]sulfonyl]-tetrahydro-N-hydroxy-2H-pyran-4-carboxamide, Trifluoroacetic Acid Salt], the IC50 in series [1] (setting [6]) was 1.8 nM; in series [2] (setting [9]), 3600 nM; in series [3] (setting [7]) it was 1.8 nM; in series [5] (setting [8]), 27.8 nM.
On to `O=C(NO)C1(S(=O)(=O)c2ccc(Oc3ccc(SC(F)(F)F)cc3)cc2)CCOCC1` [Example 382, Tetrahydro-N-hydroxy-4-[[4-[4-[(trifluoromethyl)thio]phenoxy]phenyl]-sulfonyl]-2H-pyran-4-carboxamide], for which the “t½ Hour” value in series [4] was 1.71 h.
Still for that read-out and setting: under `O=C(NO)C1(S(=O)(=O)c2ccc(Oc3ccc(C(F)(F)F)cc3)cc2)CCN(CCN2CCOCC2)CC1` [Example 388, N-hydroxy-1-[2-(4-morpholinyl)-ethyl]-4-[[4-[4-(trifluoromethyl)phenoxy]-phenyl]sulfonyl]-4-piperidinecarboxamide, Dihydrochloride] stands 0.94 h; under `O=C(NO)C1(S(=O)(=O)c2ccc(Oc3ccc(C(F)(F)F)cc3)cc2)CCN(Cc2cccnc2)CC1` [Example 390, N-hydroxy-1-(3-pyridinylmethyl)-4-[[4-[4-trifluoromethyl)phenoxy]phenyl]-sulfonyl]-4-piperidinecarboxamide, Dihydrochloride], 1.50 h; under `O=C(NO)C1(S(=O)(=O)c2ccc(Oc3ccc(C(F)(F)F)cc3)cc2)CCN(Cc2ccccn2)CC1` [Example 391, N-hydroxy-1-(2-pyridinylmethyl)-4-[[4-[4-(trifluoromethyl)phenoxy]phenyl]-sulfonyl]-4-piperidinecarboxamide, Dihydrochloride], 1.45 h.
In the case of `Cl.O=C(NO)C1(S(=O)(=O)c2ccc(Oc3ccc4c(c3)OCCO4)cc2)CCN(C2CC2)CC1` [Example 408, 1-cyclopropyl-4-[[4-[(2,3-dihydro-1,4-benzodioxin-6-yl)oxy]phenyl]-sulfonyl]-N-hydroxy-4-piperidine-carboxamide, Monohydrochloride], in series [4], the “t½ Hour” value is 3.30 h.
For the compound `Cl.O=C(NO)C1(S(=O)(=O)c2ccc(Oc3ccc(OC(F)(F)F)cc3)cc2)CCNCC1` [Example 410, N-hydroxy-4-[[4-[(trifluoromethoxy)phenoxy]phenyl]sulfonyl]-4-piperidinecarboxamide, Monohydrochloride], the “t½ Hour” value in series [4] was 1.78 h.
On the same count and under the same terms, for `C#CCN1CCC(C(=O)NO)(S(=O)(=O)c2ccc(Oc3ccc(C(C)C)cc3)cc2)CC1.Cl` [Example 414, N-hydroxy-4-[[4-[4-(1-methylethyl)phenoxy]phenyl]sulfonyl]-1-(2-propynyl)-4-piperidinecarboxamide, Monohdyrochloride] the value was 0.73 h.
On the same count and under the same terms, under `COCCN1CCC(C(=O)NO)(S(=O)(=O)c2ccc(Oc3ccc(OC(F)(F)F)cc3)cc2)CC1.Cl` [Example 416, N-hydroxy-1-(2-methoxyethyl)-4-[[4-[4-(trifluoromethoxy)phenoxy]phenyl]sulfonyl}-4-piperidinecarboxamide, Monohydrochloride] stands 2.94 h.
On the same count and under the same terms, for `COCCN1CCC(C(=O)NO)(S(=O)(=O)c2ccc(Oc3ccc(C(F)(F)F)cc3)cc2)CC1.Cl` [Example 418, N-hydroxy-1-(2-methoxyethyl)-4-[[4-[4-(trifluoromethyl)-phenoxy]phenyl]sulfonyl}-4-piperidinecarboxamide, Monohydrochloride] the value was 2.42 h.
Turning to `Cl.O=C(NO)C1(S(=O)(=O)c2ccc(Oc3ccc(C(F)(F)F)cc3)cc2)CCN(C2CC2)CC1` [Example 427, 1-cyclopropyl-N-hydroxy-4-[[4-[4-(trifluoromethyl)phenoxy]phenyl]sulfonyl]-4-piperidinecarboxamide, Monohydrochloride], in series [4], the “t½ Hour” value came to 2.85 h.
In the case of `CCN1CCC(C(=O)NO)(S(=O)(=O)c2ccc(OCc3ccc(C(F)(F)F)cc3)cc2)CC1.Cl` [Example 438, 1-ethyl-N-hydroxy-4-[[4-[[4-[trifluoromethyl)phenyl]methoxy]-phenyl]sulfonyl]-4-piperidine-carboxamide, Monohydrochloride], in series [4], the “t½ Hour” value stood at 2.14 h.
